Data set [1] deals with normal PBMC (lymphoid and myeloid cells). Nature of the data set: DNA damage response kinetics in normal PBMC. In kind it is cell-based, human.
The conditions of data set [2]: cited from earlier work.
A further data set concerns p-S6. The following applies: 10 nM in vitro; cited from earlier work.
The subject of another data set is mantle cell line (Jeko). The following applies: 10 nM in vitro; cited from earlier work.
A further data set deals with xenograft model. The conditions noted are these: low doses; cited from earlier work.
Data set [3] relates to Ba/F3-wt (+IL-3, proliferation) JAK2 wt. The following applies: read-out: Reported activity Ba/F3-wt (+IL-3, proliferation) JAK2 wt; cited from earlier work.
Data set [4] has as its system pAKT (same cells, same stim). Briefly: pAKT inhibition in PBMCs (monos), GM-CSF. The data set is classed as cell-based.
The subject of data set [5] is tumor FDG avidity, CA-125. The following applies: cited from earlier work.
For the next data set, the system named is PC3. The following applies: read-out: inhibition of PC3 cancer cell proliferation (IC50); cited from earlier work.
The subject of data set [6] is pS6 in paired tumor biopsies. The conditions noted are these: patients treated at 80 mg and higher; cited from earlier work.
The test system of a further data set is A2780. The conditions noted are these: cited from earlier work.
Data set [7] relates to pAKT levels assayed in PRP. The following applies: patients treated at 80 mg and higher; cited from earlier work.
A further data set deals with MDA-MB-361. The following applies: read-out: inhibition of MDA-MB-361 cancer cell proliferation (IC50); cited from earlier work.
Data set [8] relates to AML patient sample #1910-017 cells. Briefly: SCNP arm #1: modulated signaling in AML patient cells with and without kinase inhibitors. In kind it is cell-based, human. The conditions noted are these: subject #1910-017. The procedure:
(§1) Peripheral blood or bone marrow samples from AML patient were collected (n=9), which had been previously ficoll separated and cryopreserved. Patient characteristics are shown Table 7. One cryovial per patient was used. Samples were thawed and centrifuged over ficoll to remove dead cells and debris.
Arm #1 assessed basal and modulated signaling in the JAK/STAT, PI3K/mTor, and MEK/ERK pathways in the presence and absence of specific kinase inhibitors. Kinase inhibitors were added […]before the addition of the signaling stimulus. Signaling was induced by individual addition of stem cell factor, Flt3 ligand, G-CSF, IL-3, or thrombopoietin (TPO) for a short period of time (5-15 min). Cells were then fixed, permeabilized, and stained with a cocktail of cell surface and phospho-specific antibodies to measure signaling in multiple cell types. Signaling data is calculated in each cell type using a fold-change metric comparing each condition to its basal state: example: (stimulated^+/−inhibitor)/(unstimulated). Also, cells with an apoptotic phenotype were excluded from the signaling analysis by gating.

Data set [9] deals with GM-CSF_pSTAT5. The following applies: 1000 nM.
Data set [10] relates to GM-CSF_pSTAT5. Nature of the data set: cells. The conditions noted are these: read-out: GM-CSF_pSTAT5 inhibition IC50.
The nature of data set [11]: Plasma pharmacokinetics in patients or volunteers (values collected in Table 1). The following applies: human, in vivo.
The test system of data set [12] is anti-IgM_pAKT induced PBMC. Nature of the data set: anti-IgM induced pAKT in PBMC. The data set is classed as cell-based.
In data set [13] the test system is AML patient myeloid cells. Nature of the data set: SCNP arm #2: cytotoxic and cytostatic impact of drugs on AML patient cells. In kind it is cell-based, human. The following applies: 48 hours drug culture.
Source text: as §1
Arm #2 asessed the cytotoxic and cytostatic impact of various drugs as single agents and in combinations (including the specific kinase inhibitors tested in arm #1). Here the cells from each donor were cultured in the presence of TPO, IL-3, SCF, and FLT3L for 2 days to drive proliferation. After 2 days the cells were then distributed into wells containing various drugs, wherein the cells were cultured for 48 hours. The cultures were fixed, permeabilized, and stained with a cocktail of antibodies to measure complete cell death, apoptosis, S/G2 phase, M-Phase, and DNA damage. These readouts were also obstained from samples cultured separately with individual growth factors (no drugs) for four days.

The subject of data set [14] is tumour xenografts that have abnormal PI3K signalling. The following applies: loss of PTEN function or gain-of-function PI3K mutations; cited from earlier work.
Data set [15] concerns pAKT and pS6 on H460 cell line. The conditions noted are these: cited from earlier work.
Another data set has as its system proteome activity. The following applies: 10 nM; cited from earlier work.
For a further data set, the system named is AML cell lines. The following applies: read-out: IC90, proliferation of AML cell lines; cited from earlier work.
In data set [16] the test system is PMA induced pERK in lymphocytes from PBMCs. Nature of the data set: PMA induced pERK in lymphocytes from PBMCs. In kind it is cell-based.
Data set [17] deals with pERK in blood lymphocytes. The following applies: ~1000 ng/ml plasma conc.; cited from earlier work.
The conditions of data set [18]: human, in vivo; cited from earlier work.

“And” between values parts separate entries of the source, which are not always exact repeats. Equal values may be shown once. “Also recorded” adds a separate entry of the source. Read-outs that look alike come from different tables or passages of the source.

gemtuzumab ozogamicin [Mylotarg]: the “kinetics in Myeloid versus Lymphoid cells” value in data set [1] is given as “faster kinetics in Myeloid compared to Lymphoid cells”. Further, in data set [1] (Myeloid cells), the “time by which induction of p-ATM, p-Chk2 is seen” value is given as at most 2 h.

For the compound `CO[C@H]1C[C@@H]2CC[C@@H](C)[C@@](O)(O2)C(=O)C(=O)N2CCCC[C@H]2C(=O)O[C@H]([C@H](C)C[C@@H]2CC[C@@H](OCCO)[C@H](OC)C2)CC(=O)[C@H](C)/C=C(\C)[C@@H](O)[C@@H](OC)C(=O)[C@H](C)C[C@H](C)/C=C/C=C/C=C/1C` [Everolimus], in [2] (10 mg/d), the Cmax was 61 ng/m1 and 63 nM; the trough is 17 ng/m1 and 17.7 nM. Besides, in [2] (50 mg/wk), the trough result was “lng/ml (~1 nM). [J Clin Oncol 26: 1603-1610. 2008]. A 10 nM dose”. The “inhibition of p-S6” value in the data set on p-S6 is “inhibit p-S6 completely”. Moreover, in the data set on mantle cell line (Jeko), the “effect on proliferation of mantle cell line (Jeko)” value was “inhibit proliferation”.

In the case of `CC(C)(C)c1cc(NC(=O)Nc2ccc(-c3cn4c(n3)sc3cc(OCCN5CCOCC5)ccc34)cc2)no1` [AC220], the half-life entry in data set [2] (human, in vivo) is “AC220 half-life can be 2.5 days, exhibiting minimal peak and”. In the data set on xenograft model, the “effect in xenograft model” value is given as “tumor regression in a xenograft model at low doses. Ref:”.

Consider `N#CCNC(=O)c1ccc(-c2ccnc(Nc3ccc(N4CCOCC4)cc3)n2)cc1` [CYT387], for which, in data set [3], the IC50 is 1420 nM. In data set [4], this compound showed an IC50 of 129 nM and an IC90 of around 1000 nM.

For `CS(=O)(=O)N1CCN(Cc2cc3nc(-c4cccc5[nH]ncc45)nc(N4CCOCC4)c3s2)CC1` [GDC-0941], in data set [5] (3 patients treated at ≧100 mg), the “reductions in mean SUVmax (tumor FDG avidity on PET scan)” value is recorded as “GDC-0941 with reductions (≧30% in mean SUVmax) in tumor”. Also, the “decrease in CA-125” value in [5] (ovarian cancer patient) is “FDG avidity observed on PET scan and an ~80% decrease in CA-”. Besides, the IC50 is 280 nM in the data set with PC3, 140 nM in the data set with A2780 and 720 nM in the data set on MDA-MB-361. In data set [2] (human, in vivo), the “mean Cmax and AUCinf with dose” value was “display dose-proportional increases in mean Cmax and AUCinf”. Also, the “decreases in pS6 staining in paired tumor biopsies” value in [6] is given as “Decreases in pS6 staining of >50% can occur in paired tumor”. In addition, the “decreases in pAKT levels assayed in PRP” value in [7] was “biopsies in addition to decreases of >90% in pAKT levels assayed”. Besides, in data set [8], the “inhibition of SCF induced p-AKT” value is listed as “partial inhibition”. The “inhibition of SCF induced p-S6” value in data set [8] was “partial inhibition”.

As to `C[C@@H]1CCN(C(=O)CC#N)C[C@@H]1N(C)c1ncnc2[nH]ccc12` [CP690550], the T½ in data set [2] (human, in vivo, 30 mg) was 2.6 h. Besides, in data set [8], the “effect on high basal level of p-STAT5 signaling” value was “inhibited”, the “inhibition of IL-3 signaling” value is reported as “complete inhibition” and the “inhibition of TPO signaling” value is given as “partial inhibition”.

As to `Nc1ncn([C@H]2C[C@H](O)[C@@H](CO)O2)c(=O)n1` [Decitabine], the Cmax in data set [2] (15 mg/m2 IV over 3 hrs, every 8 hrs, for 3 days) is 0.3 to 1.6 µM.

As for `Nc1ncn([C@@H]2O[C@H](CO)[C@@H](O)[C@H]2O)c(=O)n1` [Azacitidine], in data set [2] (human, in vivo), the Cmax was 1.42 to 4.72 µM.

Take `N#CC[C@H](C1CCCC1)n1cc(-c2ncnc3[nH]ccc23)cn1` [INCB018424]: in data set [2] (100 mg 24 h), the Cmax is 4.78 µM. Further, the “inhibition of GM-CSF_pSTAT5” value with GM-CSF_pSTAT5 [9] is “Jan 2011.) 1000 nM can completely inhibit GM-CSF_pSTAT5”. For the same compound, the IC50 with GM-CSF_pSTAT5 [10] was determined as 215 nM.

On to `Cc1ccc(NC(=O)c2ccc(CN3CCN(C)CC3)cc2)cc1Nc1nccc(-c2cccnc2)n1` [Imatinib], for which the assumed trough in data set [11] is 1000 ng/ml and 2 μM.

Turning to `CC[C@H](Nc1ncnc2[nH]cnc12)c1nc2cccc(F)c2c(=O)n1-c1ccccc1` [CAL-101], the “block of anti-IgM induced pAKT” value in data set [12] (40 nM) is “blocked ~90%. Ref: Herman, Sarah EM et al. Blood. Jun. 3,”. The IC50 in data set [12] (anti-IgM induced pAKT, PBMC, read-out: Nodality IC50) is around 10 nM. Further, in data set [2] (human, in vivo), the “mean volume of distribution” value is on record as 57.7 L, the “steady-state trough plasma concentrations above the EC50 for the in vitro whole-blood assay” value is recorded as “concentrations that are >10-fold above the EC50 for the in vitro” and the t1/2 is around 8 h.

As to `Nc1ccn([C@@H]2O[C@H](CO)[C@@H](O)[C@@H]2O)c(=O)n1` [AraC, Cytarabine], in data set [13], the “drug induced apoptosis / cell death of patient myeloid cells” value (“drug induced apoptosis / cell death” for short) is listed as “resisted apoptosis”.

`Cn1c(=O)n(-c2ccc(C(C)(C)C#N)cc2)c2c3cc(-c4cnc5ccccc5c4)ccc3ncc21` [BEZ235]: the “activity against tumour xenografts” value in data set [14] was “show that BEZ235 has strong anti-proliferative activity against”. Also, the figures for the IC50 in data set [15] (read-out: pAKT 1050) and in [15] (read-out: pS6 1050) were 10 nM and 50 nM, respectively. The “inhibition of SCF induced p-AKT” value in [8] was “complete inhibition”. Besides, in [8], the “inhibition of SCF induced p-S6” value is “partial inhibition”.

For `CCNC(=O)c1noc(-c2cc(C(C)C)c(O)cc2O)c1-c1ccc(CN2CCOCC2)cc1` [NVP-AUY922], the “drug induced apoptosis / cell death” value in [13] is on record as “effective at inducing apoptosis”.

As for `CC(C)C[C@H](NC(=O)[C@H](Cc1ccccc1)NC(=O)c1cnccn1)B(O)O` [Bortezomib], the “Cmax (prescribing info)” value in [2] (human, in vivo) was 112 ng/m1. Also, in data set [2] (read-out: Cmax (prescribing info), human, in vivo), the Cmax is 0.291 µM. In data set [13], the “drug induced apoptosis / cell death” value is “effective at inducing apoptosis; also recorded: induced considerable levels of cell death and cytostasis”. Moreover, the “effect on proteome activity” value in the data set on proteome activity is “blocks proteome activity [BLOOD, 16 DECEMBER 2010”. Moreover, in the data set on AML cell lines, the IC90 was 10 to 50 nM.

Take `Cn1cnc2c(F)c(Nc3ccc(Br)cc3Cl)c(C(=O)NOCCO)cc21` [AZD6244]: the inhibition at 1 µM in [16] (1 μM in vitro, read-out: PMA induced pERK inhibited) lay in the range of 85 to 95%. The IC50 in data set [16] (lymphocytes from PBMCs) was around 100 nM. Further, the “pERK inhibition (PD effect)” value in data set [17] is reported as 11u-post dose. PD effects of ~80% pERK inhibition can be seen at. Further, in [8], the “inhibition of SCF induced p-AKT” value is listed as “no inhibition”, the “inhibition of SCF induced p-S6” value was “partial inhibition” and the “inhibition of SCF-PERK” value is “complete inhibition”.

As for `Cn1nnc2c(C(N)=O)ncn2c1=O` [Temozolomide], in [2] (human, in vivo), the T½ is 1.67 h and the “plasma concentration (Cmax) corresponding to 200 ng/m2/day” value is 9300 ng/mL. In addition, the Cmax in data set [2] (read-out: plasma concentration (Cmax) corresponding to 200 ng/m2/day, human, in vivo) was 47.9 µM. Further, the “Adult MTD” value in [18] is “glioblastoma multiforme patients. Adult MTD = 200 ng/m2/day”.

Regarding `O=C(c1cc(Cc2n[nH]c(=O)c3ccccc23)ccc1F)N1CCN(C(=O)C2CC2)CC1` [AZD2281, Olaparib], in data set [2] (at MTD), the “Cmax (maximum plasma concentration)” value was around 6000 ng/mL. For the same compound, the Cmax in data set [2] (read-out: Cmax (maximum plasma concentration), at MTD) is 13.8 µM.

Source of the values: patent publication US20130218474A1, “Benchmarks for Normal Cell Identification” (priority 2012, published 2013).
